Results from patent US20110124600A1, “Use of Dopamine partial agonists for treament of the restless leg syndrome and corresponding pharmaceutical preparation” (priority 2002, published 2011).
“Also recorded” adds a separate entry of the source.

Legend:
[1] = test system: restless leg syndrome (RLS) patients; conditions: prior art clinical studies, cited from earlier work; for therapeutic effectiveness in RLS: levodopa perorally in the evening, 100 to 600 mg
[2] = test system: restless leg syndrome (RLS) patients; test: Oral therapy of RLS patients with terguride (patient histories); type: in vivo, human
Excerpt: The invention is explained in more detail below based on examples in the form of patient histories.

[3] = cited from earlier work; for plasma half-life: in vivo
[4] = test system: sleeping pattern, REM phases; test: Effect of oral terguride on sleeping pattern / sleep profile; type: in vivo, human; conditions: 0.5 mg p.o. up to 50 mg
Procedure: A dosage of 0.5-2.5 mg is preferred. In the therapy of RLS, terguride in […] dosages apparently acts as a partial agonist, its acting especially on RLS symptoms as a complete agonist, but has little or no effect on the other intact dopaminergic control circuits that control vomiting, orthostasis and the sleep profile. Thus, there is no need to specially change the dosage with a view to side effects. At the same time, however, the desired effect begins very quickly, which is very useful if RLS symptoms occur in the evening, and leads to the patient being unable to fall asleep. Finally, if a longer duration of action is desirable, the dosage of 0.5, 1 mg or even higher can be increased without disturbing the sleep profile.

## N[C@@H](Cc1ccc(O)c(O)c1)C(=O)O [Levodopa]
[1]
  tolerance / side effects in RLS therapy: generally well tolerated
  therapeutic effectiveness in RLS: brief effectiveness

## CCCN[C@H]1CCc2nc(N)sc2C1 [Pramipexol]
[1]
  therapeutic effectiveness in RLS: almost complete suppression of symptoms

## CCCN(CCC)CCc1cccc2c1CC(=O)N2 [Ropinirole]
[1]
  tolerance / side effects in RLS therapy: fewer side effects
  therapeutic effectiveness in RLS: less effective

## OC(CCN1CCCCC1)(c1ccccc1)C1CC2C=CC1C2 (stereo not shown) [biperiden]
[2]; Patient 2, previous treatment
  effect of previous treatment on RLS: little effect

## CC(C)C[C@H]1C(=O)N2CCC[C@H]2[C@]2(O)O[C@](NC(=O)[C@@H]3C=C4c5cccc6[nH]c(Br)c(c56)C[C@H]4N(C)C3)(C(C)C)C(=O)N12 [bromocriptine]
[3]; peroral
  share of perorally administered dose reaching systemic blood circulation: 6%

## C=CCN1C[C@H](C(=O)N(CCCN(C)C)C(=O)NCC)C[C@@H]2c3cccc4[nH]cc(c34)C[C@H]21 [cabergoline]
[3]
  plasma half-life: more than 40 hours

## NC(=O)N1c2ccccc2C=Cc2ccccc21 [carbamazepine]
[1]
  therapeutic effectiveness in RLS: especially effective in the control of painful RLS symptoms
[2]; Patient 3
  success of previous RLS treatments: only moderately successful

## NCC1(CC(=O)O)CCCCC1 [gabapentin]
[1]
  therapeutic effectiveness in RLS: especially effective in the control of painful RLS symptoms

## [Mg+2] [magnesium]
[2]; Patient 3
  success of previous RLS treatments: only moderately successful

## CCCN1C[C@H](CSC)C[C@@H]2c3cccc4[nH]cc(c34)C[C@H]21 [pergolide]
[3]
  plasma half-life: more than 27 hours
[2]; Patient 2, later switched to pergolide
  course of RLS after switch from terguride: no deterioration

## CCN(CC)C(=O)N[C@H]1C[C@@H]2c3cccc4[nH]cc(c34)C[C@H]2N(C)C1 [terguride]
[2]; Patient 1, daily dosage 1.5 mg orally
  Epworth scale: 12
[2]; Patient 1, daily dosage 1.5 mg orally, long-term therapy
  side effects: no side effects
[2]; Patient 2, familial RLS, 1 mg orally
  improvement of RLS: very distinct improvement
[2]; Patient 2, 1 mg / 0.5 mg orally
  side effects: no side effects
[2]; Patient 2, further therapy with 0.5 mg
  effectiveness in RLS: partial effectiveness
[2]; Patient 2, withdrawal of terguride
  course of RLS in withdrawal trial: immediate deterioration
[2]; Patient 3 (person two), 1 mg orally for 3 months
  success of RLS treatment: very good success
[2]; Patient 3, 1 mg orally for 3 months
  side effects: no side effects
[2]; compared with first administration
  effectiveness on renewed use after stopping when RLS symptoms recurred: same effectiveness
[2]; general statement
  tolerance in treatment of RLS: very good tolerance
[2]; oral, general statement
  effectiveness in oral therapy of RLS: exceptionally effective; also recorded: great effectiveness
[4]
  adverse effect on REM phases: no adverse effect
  adverse effects on the sleeping pattern: no adverse effects whatsoever

## Cc1ccc(-c2nc3ccc(C)cn3c2CC(=O)N(C)C)cc1 [zolpidem]
[2]; Patient 3
  success of previous RLS treatments: only moderately successful
